Measurements reported in ChEMBL document CHEMBL3885881, “DrugMatrix”.

Organism: Rattus norvegicus
Test: DrugMatrix - Regimen: Daily Repeat
Assay type: toxicity, organism-based, Sprague-Dawley
Parameters: regimen Daily Repeat, gender Male, age 6-8 weeks
Settings: in vivo, po, 75 mg/kg, route oral GAVAGE, dose level High, […]; for ABSOLUTE BASOPHIL / ABSOLUTE EOSINOPHIL / ABSOLUTE LYMPHOCYTE / ABSOLUTE MONOCYTE / ABSOLUTE SEGMENTED NEUTROPHIL / BASOPHIL / EOSINOPHIL / ERYTHROCYTE COUNT / HEMATOCRIT / HEMOGLOBIN / LEUKOCYTE COUNT / LYMPHOCYTE / MEAN CORPUSCULAR HEMOGLOBIN / MEAN CORPUSCULAR HEMOGLOBIN CONCENTRATION / MEAN CORPUSCULAR VOLUME / MONOCYTE / NEUTROPHIL / NUCLEATED RED BLOOD CELLS / PLATELET COUNT: tissue Blood; for ALANINE AMINOTRANSFERASE / ALBUMIN / ALKALINE PHOSPHATASE / ASPARTATE AMINOTRANSFERASE / BLOOD UREA NITROGEN / CARBON DIOXIDE / CHLORIDE / CHOLESTEROL / CREATINE PHOSPHOKINASE / CREATININE / GLUCOSE / LACTATE DEHYDROGENASE / LIPASE / PHOSPHORUS / POTASSIUM / SODIUM / TOTAL BILIRUBIN / TOTAL PROTEIN / URIC ACID: tissue Plasma

NC(=O)N1C(=O)/C(=C(\O)c2cccs2)c2cc(Cl)ccc21 [TENIDAP]
ABSOLUTE BASOPHIL (72 h, time 3 day): 0 CELLS/uL | ABSOLUTE EOSINOPHIL (72 h, time 3 day): 72 CELLS/uL | ABSOLUTE LYMPHOCYTE (72 h, time 3 day): 18447.67 CELLS/uL | ABSOLUTE MONOCYTE (72 h, time 3 day): 586.33 CELLS/uL | ABSOLUTE SEGMENTED NEUTROPHIL (72 h, time 3 day): 3327.33 CELLS/uL | BASOPHIL (72 h, time 3 day): 0% | EOSINOPHIL (72 h, time 3 day): 0.33% | ERYTHROCYTE COUNT (72 h, time 3 day): 5.15 x10E6/uL | HEMATOCRIT (72 h, time 3 day): 32.13% | HEMOGLOBIN (72 h, time 3 day): 13.03 G/DL | LEUKOCYTE COUNT (72 h, time 3 day): 22.43 x10E3/uL | LYMPHOCYTE (72 h, time 3 day): 82% | MEAN CORPUSCULAR HEMOGLOBIN (72 h, time 3 day): 25.3 pg | MEAN CORPUSCULAR HEMOGLOBIN CONCENTRATION (72 h, time 3 day): 40.63 G/DL | MEAN CORPUSCULAR VOLUME (72 h, time 3 day): 62.33 fL | MONOCYTE (72 h, time 3 day): 2.67% | NEUTROPHIL (72 h, time 3 day): 15% | NUCLEATED RED BLOOD CELLS (72 h, time 3 day): 0 /100WBC | PLATELET COUNT (72 h, time 3 day): 1275.33 x10E3/uL | ALANINE AMINOTRANSFERASE (72 h, time 3 day): 41.67 u/L | ALBUMIN (72 h, time 3 day): 3.37 G/DL | ALKALINE PHOSPHATASE (72 h, time 3 day): 301 u/L | ASPARTATE AMINOTRANSFERASE (72 h, time 3 day): 107.33 u/L | BLOOD UREA NITROGEN (72 h, time 3 day): 11.33 mg/dL | CARBON DIOXIDE (72 h, time 3 day): 22.33 mmol/L | CHLORIDE (72 h, time 3 day): 100.33 MEQ/L | CHOLESTEROL (72 h, time 3 day): 64.67 mg/dL | CREATINE PHOSPHOKINASE (72 h, time 3 day): 1284.33 u/L | CREATININE (72 h, time 3 day): 0.21 mg/dL | GLUCOSE (72 h, time 3 day): 168.67 mg/dL | LACTATE DEHYDROGENASE (72 h, time 3 day): 492.67 u/L | LIPASE (72 h, time 3 day): 10 u/L | PHOSPHORUS (72 h, time 3 day): 11.63 mg/dL | POTASSIUM (72 h, time 3 day): 6.52 MEQ/L | SODIUM (72 h, time 3 day): 144.2 MEQ/L | TOTAL BILIRUBIN (72 h, time 3 day): 0.13 mg/dL | TOTAL PROTEIN (72 h, time 3 day): 5.17 G/DL | URIC ACID (72 h, time 3 day): 2.97 mg/dL | ABSOLUTE BASOPHIL (120 h, time 5 day): 0 CELLS/uL | ABSOLUTE EOSINOPHIL (120 h, time 5 day): 26.67 CELLS/uL | ABSOLUTE LYMPHOCYTE (120 h, time 5 day): 9823.33 CELLS/uL | ABSOLUTE MONOCYTE (120 h, time 5 day): 49.33 CELLS/uL | ABSOLUTE SEGMENTED NEUTROPHIL (120 h, time 5 day): 1634 CELLS/uL | BASOPHIL (120 h, time 5 day): 0% | EOSINOPHIL (120 h, time 5 day): 0.33% | ERYTHROCYTE COUNT (120 h, time 5 day): 4.78 x10E6/uL | HEMATOCRIT (120 h, time 5 day): 30.53% | HEMOGLOBIN (120 h, time 5 day): 12.13 G/DL | LEUKOCYTE COUNT (120 h, time 5 day): 11.53 x10E3/uL | LYMPHOCYTE (120 h, time 5 day): 87.67% | MEAN CORPUSCULAR HEMOGLOBIN (120 h, time 5 day): 25.37 pg | MEAN CORPUSCULAR HEMOGLOBIN CONCENTRATION (120 h, time 5 day): 39.73 G/DL | MEAN CORPUSCULAR VOLUME (120 h, time 5 day): 63.83 fL | MONOCYTE (120 h, time 5 day): 0.67% | NEUTROPHIL (120 h, time 5 day): 11.33% | NUCLEATED RED BLOOD CELLS (120 h, time 5 day): 0.33 /100WBC | PLATELET COUNT (120 h, time 5 day): 1185.67 x10E3/uL | ALANINE AMINOTRANSFERASE (120 h, time 5 day): 35.67 u/L | ALBUMIN (120 h, time 5 day): 3.53 G/DL | ALKALINE PHOSPHATASE (120 h, time 5 day): 211 u/L | ASPARTATE AMINOTRANSFERASE (120 h, time 5 day): 95 u/L | BLOOD UREA NITROGEN (120 h, time 5 day): 13.67 mg/dL | CARBON DIOXIDE (120 h, time 5 day): 33 mmol/L | CHLORIDE (120 h, time 5 day): 103.33 MEQ/L | CHOLESTEROL (120 h, time 5 day): 68 mg/dL | CREATINE PHOSPHOKINASE (120 h, time 5 day): 655 u/L | CREATININE (120 h, time 5 day): 0.26 mg/dL | GLUCOSE (120 h, time 5 day): 158 mg/dL | LACTATE DEHYDROGENASE (120 h, time 5 day): 243 u/L | LIPASE (120 h, time 5 day): 11 u/L | PHOSPHORUS (120 h, time 5 day): 9.87 mg/dL | POTASSIUM (120 h, time 5 day): 4.94 MEQ/L | SODIUM (120 h, time 5 day): 147 MEQ/L | TOTAL BILIRUBIN (120 h, time 5 day): 0.2 mg/dL | TOTAL PROTEIN (120 h, time 5 day): 5.43 G/DL | URIC ACID (120 h, time 5 day): 1.03 mg/dL
